For assay [1], the system named is Escherichia coli. Kind of assay: Logarithm of the inhibitory rate constant against Escherichia coli. The assay is classed as functional.
The species named for assay [2] is Mus musculus. Put plainly: Logarithm of effective dose evaluated using the foot-shock test in mice. It counts as functional.
The target of assay [3] is T1, Phenylethanolamine N-methyltransferase (Homo sapiens) (UniProt P11086).
T1 sequence (whole entry): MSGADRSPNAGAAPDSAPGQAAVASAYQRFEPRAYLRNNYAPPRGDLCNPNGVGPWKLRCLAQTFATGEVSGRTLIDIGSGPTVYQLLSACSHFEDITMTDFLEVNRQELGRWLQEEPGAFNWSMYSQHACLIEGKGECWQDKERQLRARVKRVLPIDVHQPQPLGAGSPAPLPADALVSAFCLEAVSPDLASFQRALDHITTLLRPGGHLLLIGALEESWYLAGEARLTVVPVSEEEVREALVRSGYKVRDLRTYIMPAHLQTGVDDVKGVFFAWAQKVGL
The following applies: Oryctolagus cuniculus.
Description: Inhibition of phenylethanolamine N-methyltransferase(PNMT)activity

As to `CN(C)c1ccc2c(c1O)C(O)=C1C(=O)[C@]3(O)C(O)=C(C(N)=O)C(=O)[C@@H](N(C)C)[C@@H]3CC1C2` (some centres undefined), the Log rate constant in assay [1] is recorded as 1.37 M-1 s-1.
The same measure, in the same setting: then `CN(C)[C@@H]1C(=O)C(C(N)=O)=C(O)[C@@]2(O)C(O)=C3C(=O)c4c(O)ccc(Cl)c4[C@](C)(O)C3C[C@@H]12` (some centres undefined), with 2.6 M-1 s-1.
For `CN1C(=O)CN=C(c2ccccc2)c2cc([N+](=O)[O-])ccc21` [NIMETAZEPAM], the “Log ED50” value in assay [2] is listed as 2.07 mM kg-1.
Regarding `CSc1ccc2c(c1)C(c1ccccc1)=NCC(=O)N2`, in assay [2], the “Log ED50” value is on record as 1.15 mM kg-1.
Take `CN(C)[C@@H]1C(=O)C(C(N)=O)=C(O)[C@@]2(O)C(=O)C3=C(O)c4c(O)ccc(Cl)c4C(O)C3C[C@@H]12` (some centres undefined): in assay [1], the Log rate constant was 2.71 M-1 s-1.
Consider `Cc1c2c(c(O)c3c(O)cccc13)C(=O)C1C(O)=C(C(N)=O)C(=O)[C@@H](N(C)C)[C@@H]1C2` (some centres undefined), for which the Log rate constant in assay [1] is on record as 1.19 M-1 s-1.
Regarding `NCc1ccccc1F`, in assay [3], the pI50 was found to be 3.87.
With `CN(C)[C@@H]1C(=O)C(C(N)=O)=C(O)C2C(O)C3=C(C[C@H]21)[C@@](C)(O)c1c(Cl)ccc(O)c1C3=O` (some centres undefined), in assay [1], the Log rate constant is listed as -0.47 M-1 s-1.
Take `CN(C)[C@@H]1C(=O)C(C(N)=O)=C(O)[C@@]2(O)C(O)=C3C(=O)c4c(O)cccc4[C@](C)(O)C3C[C@@H]12` (some centres undefined): the Log rate constant in assay [1] was 2.43 M-1 s-1.
In the case of `O=C1CN=C(c2ccccc2)c2cc(F)ccc2N1` [RO-053061], in assay [2], the “Log ED50” value came out at 0.4 mM kg-1.
In assay [3], `Cc1cccc(CN)c1C` came in with a pI50 of 4.24.
Regarding `CN(C)[C@@H]1C(=O)C(C(N)=O)=C(O)[C@@]2(O)C(=O)C3=C(O)c4c(ccc([N+](=O)[O-])c4O)CC3C[C@@H]12` (some centres undefined), in assay [1], the Log rate constant is 1.65 M-1 s-1.
Turning to `N#Cc1ccc2c(c1)C(c1ccccc1)=NCC(=O)N2`, in assay [2], the “Log ED50” value is 0.81 mM kg-1.
`NCc1ccc(C(F)(F)F)cc1` came in with a pI50 in assay [3] of 5.2.
On the same count and under the same terms, under `NCc1cccc(C(F)(F)F)c1` stands 5.64.
In the case of `CN1C(=O)CN=C(c2ccccc2F)c2ccccc21` [RO-054520], the “Log ED50” value in assay [2] is listed as 0.83 mM kg-1.
The same measure, in the same setting: then `CN1C(=O)CN=C(c2ccccc2F)c2cc([N+](=O)[O-])ccc21` [FLUNITRAZEPAM], with 2.59 mM kg-1.
In assay [3], `Cc1cccc(CN)c1` had a pI50 of 3.82.
`CN(C)[C@@H]1C(=O)C(C(N)=O)=C(O)[C@@]2(O)C(=O)C3=C(O)c4c(O)ccc(Br)c4CC3C[C@@H]12` (some centres undefined): the Log rate constant in assay [1] is on record as 1.71 M-1 s-1.
Turning to `O=C1CN=C(c2ccccc2)c2cc(C(F)(F)F)ccc2N1` [RO-052904], in assay [2], the “Log ED50” value came to 1.48 mM kg-1.
On the same count and under the same terms, under `CN(C)c1ccc2c(c1)C(c1ccccc1Cl)=NCC(=O)N2C` stands 0.61 mM kg-1; under `CN1C(=O)CN=C(c2ccccc2)c2cc(C#N)ccc21`, 1.74 mM kg-1.
As for `CN1C(=O)CN=C(c2ccccc2)c2cc(Cl)ccc21` [DIAZEPAM], the “Log ED50” value in assay [2] is 1.45 mM kg-1.
Same read-out and setting: then `CN1C(=O)CN=C(c2ccccc2C(F)(F)F)c2cc([N+](=O)[O-])ccc21`, with 1.86 mM kg-1; and `O=C1CN=C(c2ccccc2)c2ccccc2N1` [RO-052921], with 0.37 mM kg-1.
Regarding `CN(C)[C@@H]1C(=O)C(C(N)=O)=C(O)[C@@]2(O)C(O)=C3C(=O)c4c(O)cccc4[C@](C)(O)C3C(=O)[C@@H]12` (some centres undefined), in assay [1], the Log rate constant is on record as 2.41 M-1 s-1.
`Cc1ccc(CN)cc1` yielded a pI50 in assay [3] of 3.16.
As to `CN1C(=O)CN=C(c2ccccc2Cl)c2cc(Cl)ccc21`, in assay [2], the “Log ED50” value is given as 1.5 mM kg-1.
Still for that read-out and setting: then `CN1C(=O)CN=C(c2ccccc2F)c2cc(Cl)ccc21` [FLUDIAZEPAM], with 1.78 mM kg-1.
Consider `Cc1ccccc1CN`, for which the pI50 in assay [3] came out at 4.17.
With `CN(C)[C@@H]1C(=O)C(C(N)=O)=C(O)[C@@]2(O)C(=O)C3=C(O)c4c(ccc(N)c4O)CC3C[C@@H]12` (some centres undefined), in assay [1], the Log rate constant is reported as 2.16 M-1 s-1.
Still for that read-out and setting: under `CN(C)[C@@H]1C(=O)C(C(N)=O)=C(O)[C@@]2(O)C(=O)C3=C(O)c4c(O)ccc([N+](=O)[O-])c4CC3C[C@@H]12` (some centres undefined) stands 2.87 M-1 s-1.
`NCc1ccccc1C(F)(F)F` registered a pI50 in assay [3] of 4.64.
Turning to `NCc1cccc(Cl)c1`, the pI50 in assay [3] turned out to be 5.07.
Take `CN(C)[C@@H]1C(=O)C(C(N)=O)=C(O)C2C(=O)C3=C(O)c4c(O)cccc4CC3C[C@H]21` (some centres undefined): in assay [1], the Log rate constant is listed as 0.41 M-1 s-1.
In the case of `NCc1cc(Cl)ccc1Cl`, the pI50 in assay [3] came to 4.82.
Consider `CSc1ccc2c(c1)C(c1ccccc1)=NCC(=O)N2C`, for which the “Log ED50” value in assay [2] worked out at 0.87 mM kg-1.
With `NCc1cccc(F)c1`, the pI50 in assay [3] came out at 4.
Compound `NCc1ccc(Cl)cc1Cl` displayed a pI50 in assay [3] of 4.68.
In the case of `CN1C(=O)CN=C(c2ccccc2Cl)c2cc([N+](=O)[O-])ccc21` [RO-054082], the “Log ED50” value in assay [2] came to 2.12 mM kg-1.
On the same count and under the same terms, under `CN(C)c1ccc2c(c1)C(c1ccccc1)=NCC(=O)N2C` stands 0.86 mM kg-1.
Turning to `O=C1CN=C(c2ccccc2)c2cc([N+](=O)[O-])ccc2N1` [NITRAZEPAM], the “Log ED50” value in assay [2] worked out at 1.75 mM kg-1.
Turning to `CN(C)[C@@H]1C(O)=C(C(N)=O)C(=O)[C@@]2(O)C(O)=C3C(=O)c4c(O)cccc4C[C@H]3C[C@@H]12` [SANCYCLINE], the Log rate constant in assay [1] is listed as 1.98 M-1 s-1.
On to `CN(C)[C@@H]1C(=O)C(C(N)=O)=C(O)[C@@]2(O)C(=O)C3=C(O)c4c(O)ccc(N)c4CC3C[C@@H]12` (some centres undefined), for which, in assay [1], the Log rate constant is recorded as 2.26 M-1 s-1.

Source of the values: ChEMBL document CHEMBL1122262, “Quantitative structure-activity relationships employing independent quantum chemical indices” (1983).
